Converted amounts (≈) assume the structure as drawn. “Also recorded” adds a separate entry of the source.
Columns and labels:
[1] = system: novel campylobacter isolates; assay: Disc diffusion susceptibility to nalidixic acid and cephalothin (30 μg discs); assay type: cell-based; details: for susceptibility / resistance of the novel Campylobacter strains, in words: disc diffusion tests, 30 μg disc, novel Campylobacter strains overall; for Susceptibility to (30 μg disc): disc diffusion; for resistance (share of strains positive): taxon A: Campylobacter novel (n=23); as to Susceptibility to (30 μg disc): key: S, susceptible; R, resistant
[2] = system: C. avium sp. Nov; details: taxon 1: C. avium sp. Nov; cited from earlier work
[3] = system: C. canadensis; details: taxon 2: C. canadensis; cited from earlier work
[4] = system: C. coli; details: taxon 3: C. coli; cited from earlier work
[5] = system: C. concisus; details: taxon 4: C. concisus; cited from earlier work
[6] = system: C. cuniculurom; details: taxon 5: C. cuniculurom; cited from earlier work
[7] = system: C. curvus; details: taxon 6: C. curvus; cited from earlier work
[8] = system: C. fetus subsp. fetus; details: taxon 7: C. fetus subsp. fetus; cited from earlier work
[9] = system: C. fetus subsp. venerealis; details: taxon 8: C. fetus subsp. venerealis; cited from earlier work
[10] = system: C. gracilis; details: taxon 9: C. gracilis; cited from earlier work
[11] = system: C. helveticus; details: taxon 10: C. helveticus; cited from earlier work
[12] = system: C. hominus; details: taxon 11: C. hominus; cited from earlier work
[13] = system: C. hyointestinalis subsp. hyointestinalis; details: taxon 12: C. hyointestinalis subsp. hyointestinalis; cited from earlier work
[14] = system: C. hyointestinalis subsp. lawsonii; details: taxon 13: C. hyointestinalis subsp. lawsonii; cited from earlier work
[15] = system: C. insulaenigrae; details: taxon 14: C. insulaenigrae; cited from earlier work
[16] = system: C. jejuni subsp. Doylei; details: taxon 15: C. jejuni subsp. Doylei; cited from earlier work
[17] = system: C. jejuni subsp. Jejuni; details: taxon 16: C. jejuni subsp. Jejuni; cited from earlier work
[18] = system: C. lari; details: taxon 18: C. lari; cited from earlier work
[19] = system: C. mucosalis; details: taxon 19: C. mucosalis; cited from earlier work
[20] = system: C. rectus; details: taxon 20: C. rectus; cited from earlier work
[21] = system: C. showae; details: taxon 21: C. showae; cited from earlier work
[22] = system: C. sputorum; details: taxon 22: C. sputorum; cited from earlier work
[23] = system: C. upsaliensis; details: taxon 23: C. upsaliensis; cited from earlier work
[24] = system: Campylobacter novel strains; assay: Antimicrobial susceptibility testing by agar dilution method (MIC); details: Campylobacter;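 also: agar dilution MIC on HBA, used in place of the BSAC-recommended Iso-sensitest agar, across a panel of 14 antimicrobials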
Procedure: Antimicrobial susceptibility testing was performed using the agar dilution method for the Campylobacter novel strains against 14 antimicrobials. […] As the strains were unable to grow on the Iso-sensitest agar (ISA) recommended by the BSAC guidelines, HBA (Table 1) was used as an alternative media.

[25] = system: C. lanienae; details: taxon 17: C. lanienae; cited from earlier work

In the case of `CC(=O)OCC1=C(C(=O)O)N2C(=O)[C@@H](NC(=O)Cc3cccs3)[C@H]2SC1` [Cephalothin], the “susceptibility / resistance of the novel Campylobacter strains, in words” value [1] is reported as “variable resistance; also recorded: some were sensitive”, the “Susceptibility to (30 μg disc)” value ([1]; strain Farm 1 2009/1) is reported as “R” and the “Susceptibility to (30 μg disc)” value ([1]; strain Farm 1 2009/2) is reported as “R”. For the same molecule, the “Susceptibility to (30 μg disc)” value ([1]; strain Farm 1 2011/1) was “R”, the “Susceptibility to (30 μg disc)” value ([1]; strain Farm 1 2011/2) was “R” and the “Susceptibility to (30 μg disc)” value ([1]; strain Farm 1 2011/3) was “R”. For the same molecule, the “Susceptibility to (30 μg disc)” value ([1]; strain Farm 1 2011/4) was “R”, the “Susceptibility to (30 μg disc)” value ([1]; strain Farm 1 2011/5) was “R” and the “Susceptibility to (30 μg disc)” value ([1]; strain Farm 1 2011/6) was “R”. The “Susceptibility to (30 μg disc)” value ([1]; strain Farm 2 2011/1) was “S”, the “Susceptibility to (30 μg disc)” value ([1]; strain Farm 2 2011/2) was “S” and the “Susceptibility to (30 μg disc)” value ([1]; strain Farm 2 2011/3) was “S”. The “Susceptibility to (30 μg disc)” value ([1]; strain Farm 2 2011/4) was “S”, the “Susceptibility to (30 μg disc)” value ([1]; strain Farm 3 2011/1) was “S” and the “Susceptibility to (30 μg disc)” value ([1]; strain Farm 3 2011/2) was “S”. The “Susceptibility to (30 μg disc)” value ([1]; strain Farm 3 2011/3) was “S”, the “Susceptibility to (30 μg disc)” value ([1]; strain Farm 4 2011/1) was “S” and the “Susceptibility to (30 μg disc)” value ([1]; strain Farm 4 2011/2) was “S”. For the same molecule, the “Susceptibility to (30 μg disc)” value ([1]; strain Farm 4 2011/3) was “S”, the “resistance (share of strains positive)” value [1] was “V (V, 26-74% of strains positive)” and the “resistance (share of strains positive)” value [2] was “+ (+, 90-100% of strains positive)”. For the same molecule, the “resistance (share of strains positive)” value [3] was “− (−, 0-10% of strains positive)”, the “resistance (share of strains positive)” value [4] was “+ (+, 90-100% of strains positive)” and the “resistance (share of strains positive)” value [5] was “− (−, 0-10% of strains positive)”. The “resistance (share of strains positive)” value [6] was “(+) ((+), 75-89% strains positive)”, the “resistance (share of strains positive)” value [7] was “− (−, 0-10% of strains positive)” and the “resistance (share of strains positive)” value [8] was “− (−, 0-10% of strains positive)”. The “resistance (share of strains positive)” value [9] was “− (−, 0-10% of strains positive)”, the “resistance (share of strains positive)” value [10] was “− (−, 0-10% of strains positive)” and the “resistance (share of strains positive)” value [11] was “− (−, 0-10% of strains positive)”. For the same molecule, the “resistance (share of strains positive)” value [12] was “− (−, 0-10% of strains positive)”, the “resistance (share of strains positive)” value [13] was “(−) ((−), 11-25% of strains positive)” and the “resistance (share of strains positive)” value [14] was “− (−, 0-10% of strains positive)”. The “resistance (share of strains positive)” value [15] was “+ (+, 90-100% of strains positive)”, the “resistance (share of strains positive)” value [16] was “− (−, 0-10% of strains positive)” and the “resistance (share of strains positive)” value [17] was “+ (+, 90-100% of strains positive)”. For the same molecule, the “resistance (share of strains positive)” value [18] was “+ (+, 90-100% of strains positive)”, the “resistance (share of strains positive)” value [19] was “− (−, 0-10% of strains positive)” and the “resistance (share of strains positive)” value [20] was “− (−, 0-10% of strains positive)”. The “resistance (share of strains positive)” value [21] was “− (−, 0-10% of strains positive)”, the “resistance (share of strains positive)” value [22] was “− (−, 0-10% of strains positive)” and the “resistance (share of strains positive)” value [23] was “(−) ((−), 11-25% of strains positive)”. The MIC50 [24] was 32 µg/mL (≈ 80.7 µM) and the MIC90 [24] was 32 µg/mL (≈ 80.7 µM).

In the case of `CCn1cc(C(=O)O)c(=O)c2ccc(C)nc21` [Nalidixic acid], the “susceptibility / resistance of the novel Campylobacter strains, in words” value [1] is reported as “susceptible”, the “Susceptibility to (30 μg disc)” value ([1]; strain Farm 1 2009/1) is reported as “S” and the “Susceptibility to (30 μg disc)” value ([1]; strain Farm 1 2009/2) is reported as “S”. For the same molecule, the “Susceptibility to (30 μg disc)” value ([1]; strain Farm 1 2011/1) was “S”, the “Susceptibility to (30 μg disc)” value ([1]; strain Farm 1 2011/2) was “S” and the “Susceptibility to (30 μg disc)” value ([1]; strain Farm 1 2011/3) was “S”. The “Susceptibility to (30 μg disc)” value ([1]; strain Farm 1 2011/4) was “S”, the “Susceptibility to (30 μg disc)” value ([1]; strain Farm 1 2011/5) was “S” and the “Susceptibility to (30 μg disc)” value ([1]; strain Farm 1 2011/6) was “S”. For the same molecule, the “Susceptibility to (30 μg disc)” value ([1]; strain Farm 2 2011/1) was “S”, the “Susceptibility to (30 μg disc)” value ([1]; strain Farm 2 2011/2) was “S” and the “Susceptibility to (30 μg disc)” value ([1]; strain Farm 2 2011/3) was “S”. For the same molecule, the “Susceptibility to (30 μg disc)” value ([1]; strain Farm 2 2011/4) was “S”, the “Susceptibility to (30 μg disc)” value ([1]; strain Farm 3 2011/1) was “S” and the “Susceptibility to (30 μg disc)” value ([1]; strain Farm 3 2011/2) was “S”. The “Susceptibility to (30 μg disc)” value ([1]; strain Farm 3 2011/3) was “S”, the “Susceptibility to (30 μg disc)” value ([1]; strain Farm 4 2011/1) was “S” and the “Susceptibility to (30 μg disc)” value ([1]; strain Farm 4 2011/2) was “S”. The “Susceptibility to (30 μg disc)” value ([1]; strain Farm 4 2011/3) was “S”, the “resistance (share of strains positive)” value [1] was “− (−, 0-10% of strains positive)” and the “resistance (share of strains positive)” value [2] was “− (−, 0-10% of strains positive)”. The “resistance (share of strains positive)” value [3] was “V (V, 26-74% of strains positive)”, the “resistance (share of strains positive)” value [4] was “− (−, 0-10% of strains positive)” and the “resistance (share of strains positive)” value [5] was “(+) ((+), 75-89% strains positive)”. The “resistance (share of strains positive)” value [6] was “V (V, 26-74% of strains positive)”, the “resistance (share of strains positive)” value [7] was “+ (+, 90-100% of strains positive)” and the “resistance (share of strains positive)” value [8] was “+ (+, 90-100% of strains positive)”. For the same molecule, the “resistance (share of strains positive)” value [9] was “V (V, 26-74% of strains positive)”, the “resistance (share of strains positive)” value [10] was “V (V, 26-74% of strains positive)” and the “resistance (share of strains positive)” value [11] was “− (−, 0-10% of strains positive)”. The “resistance (share of strains positive)” value [12] was “V (V, 26-74% of strains positive)”, the “resistance (share of strains positive)” value [13] was “+ (+, 90-100% of strains positive)” and the “resistance (share of strains positive)” value [14] was “+ (+, 90-100% of strains positive)”. For the same molecule, the “resistance (share of strains positive)” value [15] was “+ (+, 90-100% of strains positive)”, the “resistance (share of strains positive)” value [16] was “− (−, 0-10% of strains positive)” and the “resistance (share of strains positive)” value [17] was “− (−, 0-10% of strains positive)”. For the same molecule, the “resistance (share of strains positive)” value [25] was “+ (+, 90-100% of strains positive)”, the “resistance (share of strains positive)” value [18] was “V (V, 26-74% of strains positive)” and the “resistance (share of strains positive)” value [19] was “(+) ((+), 75-89% strains positive)”. The “resistance (share of strains positive)” value [20] was “(+) ((+), 75-89% strains positive)”, the “resistance (share of strains positive)” value [21] was “− (−, 0-10% of strains positive)” and the “resistance (share of strains positive)” value [22] was “(+) ((+), 75-89% strains positive)”. For the same molecule, the “resistance (share of strains positive)” value [23] was “− (−, 0-10% of strains positive)”, the MIC50 [24] was 4 µg/mL (≈ 17.2 µM) and the MIC90 [24] was 8 µg/mL (≈ 34.4 µM).

Source: patent US20150284674A1, “CAMPYLOBACTER BACTERIA AND DETECTION” (priority 2012, published 2015)
